Results: patent publication US10150737B2, “Compounds for controlling arthropods” (priority 2013, dated 2018)

Assays:
Amblyomma hebraeum = assay: Amblyomma hebaraeum test (tick nymphs, immersion); type: in vivo; settings: application rate 100 ppm; tick nymphs immersed one minute; after 42 days
Method in brief: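 Tick nymphs immersed for one minute in compound diluted in water from a DMSO concentrate, then held on filter paper in a Petri dish in a climate-controlled cabinet. Kill (%) scored after 42 days; 100% means all ticks dead, 0% none.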

Boophilus microplus = Boophilus microplus - injection test; type: in vivo; settings: application rate 20 μg/animal, injection into engorged adult female ticks, after 7 days
Method in brief: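 Active ingredient in DMSO, 1 μl injected into the abdomen of 5 engorged adult female ticks, then held in a climate-controlled room. Efficacy scored after 7 days from laying of fertile eggs, with non-fertile-looking eggs kept about 42 days for larval hatch; 100% means no fertile eggs.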

Myzus persicae = Myzus persicae - spray test; type: in vivo; settings: Chinese cabbage leaf discs, after 6 days
Method in brief: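 Chinese cabbage leaf discs carrying all stages of Myzus persicae sprayed with compound in acetone/DMF diluted in water with 1000 ppm emulsifier. Efficacy (% aphids killed) assessed after 6 days.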

Lucilia cuprina = Lucilia cuprina test; type: in vivo; settings: application rate 100 ppm; L1 larvae; after 2 days
Method in brief: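 About 20 L1 larvae placed on minced horsemeat treated with compound, formulated in DMSO and diluted with water to test concentration. Kill in % scored after 2 days (100% = all larvae dead, 0% = none).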

[1] = logP determination by HPLC on a reversed-phase column (C18); type: physicochemical; settings: for logP^a): HPLC-MS method a); for log P: HPLC-MS
Phaedon cochleariae = Phaedon cochleariae - spray test; type: in vivo; settings: larvae on Chinese cabbage leaf discs, after 7 days
Method in brief: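 Chinese cabbage leaf discs sprayed with compound formulated in acetone/DMF and water containing 1000 ppm emulsifier; once dry, infested with mustard beetle larvae. Efficacy (% larvae killed) scored after 7 days.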

Spodoptera frugiperda = Spodoptera frugiperda - spray test; type: in vivo; settings: caterpillars on maize leaf discs, after 7 days
Method in brief: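 Maize leaf discs sprayed with compound formulated in acetone/DMF and diluted in water containing 1000 ppm alkylaryl polyglycol ether emulsifier, then infested with armyworm caterpillars after drying. Efficacy scored after 7 days as % caterpillars killed (100% all, 0% none).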

[2] = test system: Boophilus microplus Parkhurst strain, SP-resistant; assay: Boophilus microplus - dip test; type: in vivo; settings: application rate 100 ppm; dip of engorged adult female ticks; after 7 days
Method in brief: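 SP-resistant Parkhurst strain engorged adult female Boophilus microplus (8-10 per tube) dipped in DMSO-based compound dilutions in water, then kept in a climate-controlled room. Efficacy scored after 7 days from fertile egg laying, with larval hatch checked after about 42 days; 100% means no fertile eggs.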

Ctenocephalides felis [3] = assay: Ctenocephalides felis - in vitro contact tests with adult cat fleas; type: in vivo; settings: application rate 5 μg/cm2 (=500 g/ha); after 48 h; fleas dead or moribund
Method in brief: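 Tubes coated with compound in acetone (250 μl of 900 ppm solution gives 5 μg/cm^2 on 44.7 cm^2), solvent evaporated, then 5–10 adult fleas added and kept horizontal at room temperature and ambient humidity. After 48 h, dead or moribund (motionless/uncoordinated) fleas scored as % efficacy.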

Rhipicephalus sanguineus = Rhipicephalus sanguineus - in vitro contact tests with adult brown dog ticks; type: in vivo; settings: after 48 h, ticks dead or moribund
Method in brief: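 Test tubes coated with active ingredient in acetone, 5 μg/cm^2 at 900 ppm. 5-10 adult ticks per tube, kept dark at room temperature for 48 h. Ticks then heated at 45-50° C ≤5 min; motionless or uncoordinated ticks scored dead/moribund, efficacy as % dead or moribund.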

Ctenocephalides felis [4] = assay: Ctenocephalides felis - oral test; type: in vivo; settings: application rate 100 ppm in citrated cattle blood; after 2 days
Method in brief: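 Compound in DMSO diluted into citrated cattle blood, fed through a parafilm membrane to about 20 unfed adult cat fleas. Kill in % scored after 2 days (100% = all dead).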

Musca domestica = Musca domestica test; type: in vivo; settings: application rate 100 ppm; adult houseflies; after 2 days
Method in brief: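 Compound dissolved in DMSO (10 mg per 0.5 ml) and diluted with water to the test concentration. Sponges soaked with sugar solution plus formulation were offered to 10 adult houseflies per vessel. Mortality (% kill, 100% = all dead, 0% = none) scored after 2 days.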

Tetranychus urticae = Tetranychus urticae - spray test, OP-resistant; type: in vivo; settings: bean leaf discs, after 6 days
Method in brief: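 Compound dissolved in acetone/DMF, diluted with water containing 1000 ppm alkylaryl polyglycol ether emulsifier to test concentrations. Bean leaf discs infested with all stages of spider mites were sprayed; % kill determined after 6 days (100% = all mites dead, 0% = none).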

[5] = reversed-phase column (C18), Table I-T3

Row | SMILES | efficacy (kill) (Amblyomma hebraeum) | efficacy (laying of fertile eggs) (Boophilus microplus) | efficacy (Myzus persicae; application rate 100 g/ha) | efficacy (kill) (Lucilia cuprina) | log P [1, 5] | efficacy (Phaedon cochleariae; application rate 100 g/ha) | efficacy (Spodoptera frugiperda; application rate 100 g/ha) | efficacy (laying of fertile eggs) [2] | efficacy (Ctenocephalides felis [3]) | efficacy (kill) (Ctenocephalides felis [4]) | efficacy (kill) (Musca domestica) | efficacy (Tetranychus urticae; application rate 100 g/ha) | efficacy (Rhipicephalus sanguineus; application rate 5 μg/cm2) | logP^a) [1] | logP^a) [1, 5] | efficacy (Myzus persicae; application rate 500 g/ha) | efficacy (Phaedon cochleariae; application rate 500 g/ha) | efficacy (Spodoptera frugiperda; application rate 500 g/ha) | efficacy (Tetranychus urticae; application rate 500 g/ha) | further results
1 | Cc1cc(C(F)(C(F)(F)F)C(F)(F)F)cc(C(F)(F)F)c1-n1cc(-c2cnc(C)c(C(=O)N(C)C3(C#N)CC3)c2)cn1 [I-T3-123] | 80% | 100% | 100% | 100% | 3.9 | 100% | 100% | 100% | 100% | 100% | 100% | 90% | – | – | – | – | – | – | – | logP^a) ([1]; reversed-phase column (C18)): 3.9; efficacy (Rhipicephalus sanguineus; application rate 1 μg/cm2): 80%
2 | N#CC1(NC(=O)c2cc(-c3cnn(-c4c(Cl)cc(C(F)(C(F)(F)F)C(F)(F)F)cc4OC(F)(F)F)c3)ccc2Cl)CC1 [I-T3-163] | 100% | 100% | 90% | 100% | 4.5 | 100% | 100% | 100% | 100% | 100% | 100% | 100% | 100% | – | – | – | – | – | – | logP^a) ([1]; reversed-phase column (C18)): 4.5
3 | Cc1cc(C(F)(C(F)(F)F)C(F)(F)F)cc(C(F)(F)F)c1-n1cc(-c2ccc(Cl)c(C(=O)NC3CC3)c2)cn1 [I-T3-54] | 100% | 100% | 100% | 100% | – | 100% | 100% | 100% | 100% | 100% | 100% | 100% | 100% | 4.4 | 4.4 | – | – | – | – | –
4 | Cc1cc(C(F)(C(F)(F)F)C(F)(F)F)cc(C)c1-n1cc(-c2cnc(Cl)c(C(=O)NC3CC3)c2)cn1 [I-T3-20] | 100% | 100% | – | 100% | – | – | – | 100% | 100% | 100% | 100% | – | 100% | 3.8 | 3.8 | 100% | 100% | 100% | 100% | –
5 | Cc1ncc(-c2cnn(-c3c(Cl)cc(C(F)(C(F)(F)F)C(F)(F)F)cc3Cl)c2)cc1C(=O)NC1(C#N)CC1 [I-T3-92] | 100% | 100% | – | 100% | 3.4 | – | – | 100% | 100% | 100% | 100% | – | 80% | 3.4 | – | 100% | 100% | 100% | 100% | –
6 | CCc1cc(C(F)(C(F)(F)F)C(F)(F)F)cc(Cl)c1-n1cc(-c2ccc(Cl)c(C(=O)NC3CC3)c2)cn1 [I-T3-72] | 100% | 100% | 90% | 100% | – | 100% | 100% | 100% | 100% | 100% | 100% | 100% | 100% | 4.6 | 4.6 | – | – | – | – | –
7 | CCc1cc(C(F)(C(F)(F)F)C(F)(F)F)cc(C)c1-n1cc(-c2ccc(Cl)c(C(=O)NC3CC3)c2)cn1 [I-T3-44] | 100% | 100% | – | 100% | – | – | – | 100% | 100% | 100% | – | – | 100% | 4.7 | 4.7 | 100% | 100% | 100% | 100% | –
8 | N#CC1(NC(=O)c2cc(-c3cnn(-c4ccc(C(F)(C(F)(F)F)C(F)(F)F)cc4C(F)(F)F)c3)ccc2Cl)CC1 [I-T3-53] | 80% | 100% | 90% | 100% | – | 100% | 100% | 100% | – | 100% | 100% | 100% | 100% | 4.3 | 4.3 | – | – | – | – | –
9 | Cc1cc(C(F)(C(F)(F)F)C(F)(F)F)cc(C)c1-c1cnn(-c2cnc(Cl)c(C(=O)NC3CC3)c2)c1 [I-T4-3, 2-chloro-N-cyclopropyl-5-[4-[2,6-dimethyl-4-[1,2,2,2-tetrafluoro-1-(trifluoromethyl)ethyl]phenyl]pyrazol-1-yl]pyridine-3-carboxamide] | 100% | – | 90% | – | – | – | – | 100% | 100% | – | – | – | 100% | – | – | – | – | – | – | pest or weed control at 0.02 mg (Boophilus microplus; Rhipicephalus microplus, 168 h, read-out: efficacy (laying of fertile eggs)): 100%; logP ([1]; HPLC, C18 reversed phase, acetonitrile/water with formic acid, EEC Directive 79/831 Annex V.A8): 4.4
